This is an account of results in publication PMC9920986 (Molecules, 2023).

Read-outs that look alike come from different tables or passages of the source. Bounds are passed on as bounds.

Data set [1] deals with NQO2. The conditions noted are these: cited from earlier work; for IC50: Figure 1.
Data set [2] addresses T1, human recombinant NRH:quinone oxidoreductase (NQO2) (Homo sapiens, UniProt P16083).
T1 construct: purchased Sigma Q0380
T1 sequence (P16083 1-231): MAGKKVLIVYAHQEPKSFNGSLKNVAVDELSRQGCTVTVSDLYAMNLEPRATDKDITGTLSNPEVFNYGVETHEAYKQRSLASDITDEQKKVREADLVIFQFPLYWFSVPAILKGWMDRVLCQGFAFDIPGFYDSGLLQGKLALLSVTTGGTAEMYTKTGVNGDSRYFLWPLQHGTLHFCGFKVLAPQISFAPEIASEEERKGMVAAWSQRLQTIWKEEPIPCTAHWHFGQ
The data set is described as follows: biochemical. To be noted: for inhibition at 10 µM: read-out: NQO2 Inhibition, %. How it is done:
The inhibition activity of all synthesized compounds at a concentration of 10 µM was preliminarily tested in vitro using human recombinant NRH:quinone oxidoreductase (NQO2).
The activity of recombinant human NQO2 (Sigma #Q0380, St. Louis, […], USA) was evaluated kinetically using menadione and N-benzyl-dihydronicotinamide (BNAH) as the substrate and co-substrate, respectively. All reagents and test compounds were dissolved in 50 mM Hepes-KOH (pH 7.4) containing 1 mM of β-octyl-D-glucopyranoside, 0.1 mg/mL BSA and 1 μM FAD. […] The solutions of the test compounds were pre-incubated for 5 min with 50 μL of human recombinant NQO2 (final concentration 42 ng/mL). Then, 25 μL of menadione was introduced at a final concentration of 100 μM. The reaction was started with 25 μL of 100 μM BNAH. The fluorescence of the co-substrate BNAH was followed at wavelengths of 370/440 nm at 37 °C using an Infinite M200 Pro microplate reader (Tecan, Grödig, Austria). The fluorescence data was fit according to a one-phase decay nonlinear regression to obtain slope values with Prism 8.0 (GraphPad Inc., San Diego, CA, USA). The activity in sample wells were normalized against negative control and enzyme-blank samples.

Data set [3] in a line: Antiproliferative assay (MTT colorimetric test, 72 h). The format is cell-based. The conditions noted are these: human, n.a. = not active, read-out: A549, CC50. The text has this: (§1) The cytotoxicity of the synthesized oxindoles was studied using the A549 cell line in which the levels of NQO2 are increased (Table 4). […] The cytotoxicity of the compounds may be due to the inhibition of other enzymes associated with the activation of apoptosis in cancer cells, for example GSK3b or tyrosine kinases, or with the general non-specific toxicity of these compounds. Thus, the influence of NQO2 on A549 cell viability has not been established.
(§2) The A549 cells were maintained in F12-K (Gibco, Paisley, UK) supplemented with 10% fetal bovine serum (FBS, Gibco, UK), penicillin (100 UI mL^−1), streptomycin (100 µg mL^−1) and GlutaMax (2 mM, Gibco, UK). All cells line were cultured under a humidified atmosphere of 95% air/5% CO2 at 37 °C. Subconfluent monolayers, in the log growth phase, were harvested by a brief treatment with TrypLE Express solution (Gibco, UK) in phosphate-buffered saline (PBS, Capricorn Scientific, Ebsdorfergrund, Germany) and washed three times in serum-free PBS. The number of viable cells was determined by trypan blue exclusion.
(§3) The effects of the synthesized compounds on cell viability were determined using the MTT colorimetric test. All examined cells were diluted with the growth medium to 3.5 × 10^4 cells per mL and the aliquots (7 × 10^3 cells per 200 μL) were placed in individual wells in 96-multiplates (Eppendorf, Germany) and incubated for 24 h. […] After incubation, the cells were then treated with 40 μL MTT solution (3-(4,5-dimethylthiazol-2-yl)-2,5-diphenyltetrazolium bromide, 5 mg mL^−1 in PBS) and incubated for 4 h. After an additional 4 h incubation, the medium with MTT was removed and DMSO (150 μL) was added to dissolve the formazan crystals. The plates were shaken for 10 min. The optical density of each well was determined at 560 nm using a microplate reader GloMax Multi+ (Promega, Madison, WI, USA). Each of the tested compounds was evaluated for cytotoxicity in three separate experiments.
Background: Tetrazolium assays rely on reduction of a dye to a coloured formazan, in cell work by metabolically active cells.

Data set [4] deals with A549 cell line. The data set is described as above. It counts as cell-based. The conditions noted are these: n.a. = not active.
Description: as §1, §2, §3

[5] abbreviates: recombinant human NQO2, 100 μM menadione, 100 μM BNAH, read-out: NQO2 IC50 ± SEM.

The IC50 is the concentration needed to halve the response being measured. `COC(=O)Nc1ccc2[nH]cc(CCNC(C)=O)c2c1` [MCA-NAT]: in data set [1], the IC50 was 0.037 µM.
In general, CC50 refers to the concentration giving 50% cytotoxicity. On to `Cc1ccc(C(=O)CC2(O)C(=O)Nc3ccccc32)cc1` (stereo not shown) [Compound 52, 3-hydroxy-3-[2-(4-methylphenyl)-2-oxoethyl]-2-oxindole], for which the IC50 in data set [2] (setting [5]) was > 50 µM. Moreover, the half-maximal cytotoxic concentration (CC50) at 72 h in data set [3] came to 171 ± 13.4 µM.
Usually inhibition stands for the drop in the measured response relative to a control, in per cent. Take `O=C1Nc2ccc(NC(=O)c3ccccc3)cc2C1=Cc1ccc(O)cc1` [Compound 19, 3-(4-hydroxybenzylidene)-5-benzoylamino-2-oxindole]: in data set [2], the inhibition at 10 µM is 62.9%. The CC50 at 72 h in data set [3] turned out to be 412.2 ± 3.98 µM.
As to `O=C1Nc2ccc(Br)cc2C1=Cc1ccccn1` [Compound 3, 5-bromo-3-(2-pyridinylmethylidene)-2-oxindole], in data set [2] (setting [5]), the IC50 is > 50 µM. The CC50 at 72 h in data set [3] was 90.6 ± 1.5 µM.
As for `O=C1Nc2ccc([N+](=O)[O-])cc2C1=Cc1cccnc1` [Compound 9, 5-nitro-3-(3-pyridinylmethylidene)-2-oxidole], in data set [2], the half-inhibitory concentration (IC50) is > 50 µM. The 50% cytotoxic concentration (CC50) at 72 h in data set [3] was determined as 429 ± 24 µM.
Regarding `COc1cc(C=C2C(=O)Nc3ccc(NC(C)=O)cc32)cc(OC)c1OC` [Compound 24, 3-(3,4,5-trimethoxybenzylidene)-5-acetylamino-2-oxindole], the IC50 in data set [2] (setting [5]) is 0.37 ± 0.01 µM. Also, the CC50 at 72 h in data set [3] turned out to be 149 ± 2.63 µM.
Regarding `O=C1Nc2ccc(Br)cc2C1=Cc1cccs1` [Compound 38, 5-bromo-3-(2-thienylmethylidene)-2-oxindole], the IC50 in data set [2] is > 50 µM. In addition, the 50% cytotoxic concentration (CC50) at 72 h in data set [3] was found to be 427 ± 6.2 µM.
For the compound `O=C1Nc2ccccc2C1=Cc1ccncc1` [Compound 10, 3-(4-pyridinylmethylidene)-2-oxindole], the IC50 in data set [2] (setting [5]) was > 50 µM. In addition, in data set [3], the 50% cytotoxic concentration (CC50) at 72 h amounted to 80.3 ± 9.87 µM.
For `O=C1Nc2ccccc2C1=Cc1cccs1` [Compound 37, 3-(2-thienylmethylidene)-2-oxindole], in data set [2], the inhibition at 10 µM was determined as 38.1%. Also, the CC50 at 72 h in data set [3] was 491 ± 19.9 µM.
As for `O=C1Nc2ccccc2C1=Cc1cccnc1` [Compound 7, 3-(3-pyridinylmethylidene)-2-oxindole], in data set [2], the inhibition at 10 µM was found to be 59.2%. Besides, the CC50 at 72 h in data set [3] was found to be 67.5 ± 7.58 µM.
Consider `Cc1n[nH]cc1C=C1C(=O)Nc2ccccc21` [Compound 43, 3-((3-methyl-1H-pyrazol-4-yl)methylene)-2-oxindole], for which, in data set [2], the half-maximal inhibitory concentration (IC50) is 7.61 ± 0.19 µM. For the same compound, the CC50 at 72 h in data set [3] was 219 µM.
With `COc1ccc2[nH]cc(CCNC(C)=O)c2c1` [Melatonin], in data set [1], the 50% inhibitory concentration (IC50) is 6 µM and the “NQO2 inhibition concentration range” value was ~50 µM.
As for `O=C1Nc2ccc(NC(=O)c3ccccc3)cc2C1=Cc1ccccn1` [Compound 6, (E,Z)-3-(2-Pyridinylmethylidene)-5-benzoylamino-2-oxindole], the inhibition at 10 µM in data set [2] was 43.1%. Besides, the CC50 at 72 h in data set [3] stood at 17.4 ± 1.8 µM.
`O=C1Nc2ccccc2/C1=C\c1ccccn1` [Compound 1, (E)-3-(2-pyridinylmethylidene)-2-oxindole]: the half-maximal inhibitory concentration (IC50) in data set [2] is > 50 µM. Also, the cytotoxic concentration (CC50) at 72 h in data set [3] is 48 ± 4.42 µM.
The corresponding values for `O=C1Nc2ccccc2C1=Cc1ccc(O)cc1` [Compound 14, 3-(4-hydroxybenzylidene)-2-oxindole] are > 50 µM and 80.9 ± 12.2 µM.
Take `O=C1Nc2ccccc2C1=Cc1ccco1` [Compound 34, 3-(2-furylmethylidene)-2-oxindole]: the inhibition at 10 µM in data set [2] is 59.9%. In addition, in data set [3], the 50% cytotoxic concentration (CC50) at 72 h came out at 595 ± 25.4 µM.
Take “(E,Z)-3-(4-Fluorobenzylidene)-2-oxindole [Compound 33]”: the “NQO2 Inhibition, %” value in data set [2] (inhibition at 10 µM concentration) is on record as 19.46%. Further, the half-inhibitory concentration (IC50) in data set [2] (setting [5]) was > 50 µM. The compound also gave a CC50 in data set [4] of 38.6 ± 10.4 µM.
Turning to `O=C1Nc2ccc(Br)cc2C1=Cc1ccc(Br)cc1` (mixture of isomers) [Compound 31, 3-(4-bromobenzylidene)-5-bromo-2-oxindole], in data set [2], the inhibition at 10 µM worked out at 68.6%. In data set [3], the CC50 at 72 h is 242 ± 3.19 µM.
On the same counts, the results for `O=C1Nc2ccc(Br)cc2C1=Cc1ccncc1` [Compound 11, 5-bromo-3-(4-pyridinylmethylidene)-2-oxindole] are 41.9% and 22.3 ± 1.42 µM.
Regarding `CC(=O)Nc1ccc2c(c1)C(=Cc1cccc(O)c1)C(=O)N2` [Compound 13, 3-(3-hydroxybenzylidene)-5-acetylamino-2-oxindole], the concentration for half-maximal inhibition (IC50) in data set [2] amounted to 0.64 ± 0.04 µM. Besides, the CC50 at 72 h in data set [3] came to 176 ± 4.76 µM.
